Results from patent US7265120B2, “Pyrazine derivatives and pharmaceutical use thereof” (Astellas Pharma Inc., priority 2004, dated 2007).

Structure (SMILES) | melting point [°C]
Cn1nc(-c2nc(NC3CCN(Cc4ccccc4)C3)c(N)nc2-c2ccccc2)ccc1=O (stereo not drawn) [Example 128, 6-{5-amino-6-[(1-benzyl-3-pyrrolidinyl)amino]-3-phenyl-2-pyrazinyl}-2-methyl-3(2H)-pyridazinone] | 183 to 185
Cn1nc(-c2nc(NC3CCN(Cc4ccccc4)CC3)c(N)nc2-c2ccccc2)ccc1=O [Example 129, 6-{5-amino-6-[(1-benzyl-4-piperidinyl)amino]-3-phenyl-2-pyrazinyl}-2-methyl-3(2H)-pyridazinone] | 191 to 194
Cn1nc(-c2nc(N3CCN(c4ccccc4)CC3)c(N)nc2-c2ccccc2)ccc1=O [Example 130, 6-[5-amino-3-phenyl-6-(4-phenyl-1-piperazinyl)-2-pyrazinyl]-2-methyl-3(2H)-pyridazinone] | 155 to 157
Cn1nc(-c2nc(N3CCN4CCCC4C3)c(N)nc2-c2ccccc2)ccc1=O (stereo not drawn) [Example 131, 6-[5-amino-6-(hexahydropyrrolo[1,2-a]pyrazin-2(1H)-yl)-3-phenyl-2-pyrazinyl]-2-methyl-3(2H)-pyridazinone] | 177 to 179
CC(C)n1nc(-c2nc(NCCN(C)C)c(N)nc2-c2ccccc2)ccc1=O [Example 132, 6-(5-amino-6-{[2-(dimethylamino)ethyl]amino}-3-phenyl-2-pyrazinyl)-2-isopropyl-3(2H)-pyridazinone] | 188 to 189
CC(=O)NCCNc1nc(-c2ccc(=O)n(C(C)C)n2)c(-c2ccccc2)nc1N [Example 133, N-(2-{[3-amino-6-(1-isopropyl-6-oxo-1,6-dihydro-3-pyridazinyl)-5-phenyl-2-pyrazinyl]amino}ethyl)acetamide] | 147 to 149
CC(C)n1nc(-c2nc(NCCc3ccccc3)c(N)nc2-c2ccccc2)ccc1=O [Example 135, 6-{5-amino-3-phenyl-6-[(2-phenylethyl)amino]-2-pyrazinyl}-2-isopropyl-3(2H)-pyridazinone] | 204.5 to 207
CC(C)n1nc(-c2nc(NCCCc3ccccc3)c(N)nc2-c2ccccc2)ccc1=O [Example 136, 6-{5-amino-3-phenyl-6-[(3-phenylpropyl)amino]-2-pyrazinyl}-2-isopropyl-3(2H)-pyridazinone] | 185.5 to 187
CC(C)n1nc(-c2nc(NC3CCCCC3)c(N)nc2-c2ccccc2)ccc1=O [Example 137, 6-[5-amino-6-(cyclohexylamino)-3-phenyl-2-pyrazinyl]-2-isopropyl-3(2H)-pyridazinone] | 227 to 228.5
CC(C)n1nc(-c2nc(NC3CCN(Cc4ccccc4)C3)c(N)nc2-c2ccccc2)ccc1=O (stereo not drawn) [Example 138, 6-{5-amino-6-[(1-benzyl-3-pyrrolidinyl)amino]-3-phenyl-2-pyrazinyl)-2-isopropyl-3(2H)-pyridazinone] | 86 to 91
CC(C)n1nc(-c2nc(Nc3ccccc3)c(N)nc2-c2ccccc2)ccc1=O [Example 139, 6-(5-amino-6-anilino-3-phenyl-2-pyrazinyl)-2-isopropyl-3(2H)-pyridazinone] | > 250
CC(C)n1nc(-c2nc(N3CCOCC3)c(N)nc2-c2ccccc2)ccc1=O [Example 140, 6-[5-amino-6-(4-morpholinyl)-3-phenyl-2-pyrazinyl]-2-isopropyl-3(2H)-pyridazinone] | 212 to 214.5
CC(C)n1nc(-c2nc(N3CCCC3)c(N)nc2-c2ccccc2)ccc1=O [Example 141, 6-[5-amino-3-phenyl-6-(1-pyrrolidinyl)-2-pyrazinyl]-2-isopropyl-3(2H)-pyridazinone] | 192 to 194.5
CC(C)n1nc(-c2nc(N3CCN(c4ccccn4)CC3)c(N)nc2-c2ccccc2)ccc1=O [Example 142, 6-{5-amino-3-phenyl-6-[4-(2-pyridyl)-1-piperazinyl]-2-pyrazinyl}-2-isopropyl-3(2H)-pyridazinone] | 163 to 165
Cn1nc(-c2nc(N(CCO)Cc3ccccc3)c(N)nc2-c2ccccc2)ccc1=O [Example 143, 6-{5-amino-6-[benzyl(2-hydroxyethyl)amino]-3-phenyl-2-pyrazinyl}-2-methyl-3(2H)-pyridazinone] | 210 to 212
Cn1nc(-c2nc(NCc3ccccc3)c(N)nc2-c2ccccc2)ccc1=O [Example 144, 6-[5-amino-6-(benzylamino)-3-phenyl-2-pyrazinyl]-2-methyl-3(2H)-pyridazinone] | > 250
CN(C)c1nc(-c2ccc(=O)n(C)n2)c(-c2ccccc2)nc1N [Example 144, 6-[5-amino-6-(dimethylamino)-3-phenyl-2-pyrazinyl]-2-methyl-3(2H)-pyridazinone] | 150 to 152
COc1ccc(CNc2nc(-c3ccc(=O)n(C)n3)c(-c3ccccc3)nc2N)cc1 [Example 145, 6-[5-amino-6-[(4-methoxybenzyl)amino]-3-phenyl-2-pyrazinyl}-2-methyl-3(2H)-pyridazinone] | > 250
Cn1nc(-c2nc(NCc3ccccn3)c(N)nc2-c2ccccc2)ccc1=O [Example 146, 6-{5-amino-3-phenyl-6-[(2-pyridylmethyl)amino]-2-pyrazinyl}-2-methyl-3(2H)-pyridazinone] | > 250
CC(C)n1nc(-c2nc(-n3cccc3)c(N)nc2-c2ccccc2)ccc1=O [Example 147, 6-[5-amino-3-phenyl-6-(1H-pyrrol-1-yl)-2-pyrazinyl]-2-isopropyl-3(2H)-pyridazinone] | 132 to 136

Structure (SMILES) | melting point [°C]
Cn1nc(-c2nc(-n3cccc3)c(N)nc2-c2ccccc2)ccc1=O [Example 148, 6-[5-amino-3-phenyl-6-(1H-pyrrol-1-yl)-2-pyrazinyl]-2-methyl-3(2H)-pyridazinone] | 202 to 205
CC(C)n1nc(-c2nc(-n3cccn3)c(N)nc2-c2ccccc2)ccc1=O [Example 149, 6-[5-amino-3-phenyl-6-(1H-pyrazol-1-yl)-2-pyrazinyl]-2-isopropyl-3(2H)-pyridazinone] | 210 to 212
CC(C)n1nc(-c2nc(-n3ccnc3)c(N)nc2-c2ccccc2)ccc1=O [Example 150, 6-[5-amino-6-(1H-imidazol-1-yl)-3-phenyl-2-pyrazinyl]-2-isopropyl-3(2H)-pyridazinone] | > 250
CC(C)n1nc(-c2nc(-n3cncn3)c(N)nc2-c2ccccc2)ccc1=O [Example 151, 6-[5-amino-3-phenyl-6-(1H-1,2,4-triazol-1-yl)-2-pyrazinyl]-2-isopropyl-3(2H)-pyridazinone] | 240 to 241.5
CC(C)n1nc(-c2nc(-n3cnc4ccccc43)c(N)nc2-c2ccccc2)ccc1=O [Example 152, 6-[5-amino-6-(1H-benzimidazol-1-yl)-3-phenyl-2-pyrazinyl]-2-isopropyl-3(2H)-pyridazinone] | > 250
Cn1nc(-c2nc(-n3ccnc3)c(N)nc2-c2ccccc2)ccc1=O [Example 154, 6-[5-amino-6-(1H-imidazol-1-yl)-3-phenyl-2-pyrazinyl]-2-methyl-3(2H)-pyridazinone] | > 250
Cn1nc(-c2nc(-n3cncn3)c(N)nc2-c2ccccc2)ccc1=O [Example 155, 6-[5-amino-3-phenyl-6-(1H-1,2,4-triazol-1-yl)-2-pyrazinyl]-2-methyl-3(2H)-pyridazinone] | > 250
Cn1nc(-c2nc(-n3cnc4ccccc43)c(N)nc2-c2ccccc2)ccc1=O [Example 156, 6-[5-amino-6-(1H-benzimidazol-1-yl)-3-phenyl-2-pyrazinyl]-2-methyl-3(2H)-pyridazinone] | > 250
COc1nc(-c2ccc(=O)n(C(C)C)n2)c(-c2ccccc2)nc1N [Example 157, 6-(5-amino-6-methoxy-3-phenyl-2-pyrazinyl)-2-isopropyl-3(2H)-pyridazinone] | 211 to 214
CC(C)n1nc(-c2nc(Oc3ccc(F)cc3)c(N)nc2-c2ccccc2)ccc1=O [Example 158, 6-[5-amino-6-(4-fluorophenoxy)-3-phenyl-2-pyrazinyl]-2-isopropyl-3(2H)-pyridazinone] | 173 to 175
CC(C)n1nc(-c2nc(Sc3ccc(F)cc3)c(N)nc2-c2ccccc2)ccc1=O [Example 159, 6-{5-amino-6-[(4-fluorophenyl)thio]-3-phenyl-2-pyrazinyl}-2-isopropyl-3(2H)-pyridazinone] | 148 to 150
CC(C)Oc1nc(-c2ccc(=O)n(C(C)C)n2)c(-c2ccccc2)nc1N [Example 160, 6-(5-amino-6-isopropoxy-3-phenyl-2-pyrazinyl)-2-isopropyl-3(2H)-pyridazinone] | 198 to 200
CC(C)n1nc(-c2nc(OC3CCCCC3)c(N)nc2-c2ccccc2)ccc1=O [Example 161, 6-[5-amino-6-(cyclohexyloxy)-3-phenyl-2-pyrazinyl]-2-isopropyl-3(2H)-pyridazinone] | 161 to 163
CC(C)n1nc(-c2nc(OCc3ccccc3)c(N)nc2-c2ccccc2)ccc1=O [Example 162, 6-[5-amino-6-(benzyloxy)-3-phenyl-2-pyrazinyl]-2-isopropyl-3(2H)-pyridazinone] | 118 to 120
CC(C)n1nc(-c2nc(OCc3ccco3)c(N)nc2-c2ccccc2)ccc1=O [Example 164, 6-[5-amino-6-(2-furylmethoxy)-3-phenyl-2-pyrazinyl]-2-isopropyl-3(2H)-pyridazinone] | 172 to 174
CCCCOc1nc(-c2ccc(=O)n(C(C)C)n2)c(-c2ccccc2)nc1N [Example 165, 6-(5-amino-6-butoxy-3-phenyl-2-pyrazinyl)-2-isopropyl-3(2H)-pyridazinone] | 130 to 131.5
COCCOc1nc(-c2ccc(=O)n(C(C)C)n2)c(-c2ccccc2)nc1N [Example 166, 6-[5-amino-6-(2-methoxyethoxy)-3-phenyl-2-pyrazinyl]-2-isopropyl-3(2H)-pyridazinone] | 128 to 130
CC(C)n1nc(-c2nc(OCCOC(C)(C)C)c(N)nc2-c2ccccc2)ccc1=O [Example 167, 6-[5-amino-6-(2-tert-butoxyethoxy)-3-phenyl-2-pyrazinyl]-2-isopropyl-3(2H)-pyridazinone] | 163 to 165
CC(C)n1nc(-c2nc(OCCOCc3ccccc3)c(N)nc2-c2ccccc2)ccc1=O [Example 168, 6-{5-amino-6-[2-(benzyloxy)ethoxy]-3-phenyl-2-pyrazinyl}-2-isopropyl-3(2H)-pyridazinone] | 120 to 122
